# Experimental data taken from patent US20200108070A2, “INHIBITORS OF FIBROBLAST GROWTH FACTOR RECEPTOR AND USE THEREOF” (Nanjing TransThera Biosciences Co. Ltd., priority 2016, published 2020).
# Columns and labels:
# RT112/84 = assay: Cellular activity test (Cell titer-Glo), RT112/84; type: cell-based; settings: Homo sapiens, RT112/84, bladder cancer cell with abnormal FGFR, 72 h, read-out: Inhibitory activity against cells (IC50) RT112/84
# From the text: (§1) Experimental Example 2: Celluar Activity Test of the Compounds of the Present Invention
# (§2) Hep3B is a cell with abnormal FGFR in hepatocellular carcinoma RT112/84 is a cell with abnormal FGFR in bladder cancer DMS114 is a cell with abnormal FGFR in small cell lung cancer AN3CA is a cell with abnormal FGFR in endometrial cancer SNU-16 is a cell with abnormal FGFR in gastric cancer
# (§3) Test substance: The compounds of the present invention, the structures of which are shown above.
# (§4) Test instrument: The Espire multi-function microplate reader.
# (§5) Each cell line was seeded into a 96-well plate, and adherent cultured overnight. Then, the compounds at different concentrations (12 dose groups, 3× DMSO serial dilutions) were added to a final concentration of 0.17-30000 nM, with the final content of DMSO of 5‰. The negative control well was medium containing 5‰ DMSO. After incubation at 37° C., 5% CO2, 95% humidity for 72 h, the cultures would be test. 30 μL of Cell titer-Glo reagent was added to each well and incubated for 30 min at room temperature. The final data were read by Espire microplate reader.
# FGFR1 = FGFR1 (Homo sapiens, UniProt P11362); assay: Enzymatic activity test (LabChip EZ Reader II / Caliper), FGFR1; type: biochemical; settings: FGFR1(h), FAM-labelled polypeptide substrate and ATP, 30 min incubation; read-out: Inhibitory activity against FGFR (IC50) FGFR1
# FGFR1, sequence (P11362 22-822): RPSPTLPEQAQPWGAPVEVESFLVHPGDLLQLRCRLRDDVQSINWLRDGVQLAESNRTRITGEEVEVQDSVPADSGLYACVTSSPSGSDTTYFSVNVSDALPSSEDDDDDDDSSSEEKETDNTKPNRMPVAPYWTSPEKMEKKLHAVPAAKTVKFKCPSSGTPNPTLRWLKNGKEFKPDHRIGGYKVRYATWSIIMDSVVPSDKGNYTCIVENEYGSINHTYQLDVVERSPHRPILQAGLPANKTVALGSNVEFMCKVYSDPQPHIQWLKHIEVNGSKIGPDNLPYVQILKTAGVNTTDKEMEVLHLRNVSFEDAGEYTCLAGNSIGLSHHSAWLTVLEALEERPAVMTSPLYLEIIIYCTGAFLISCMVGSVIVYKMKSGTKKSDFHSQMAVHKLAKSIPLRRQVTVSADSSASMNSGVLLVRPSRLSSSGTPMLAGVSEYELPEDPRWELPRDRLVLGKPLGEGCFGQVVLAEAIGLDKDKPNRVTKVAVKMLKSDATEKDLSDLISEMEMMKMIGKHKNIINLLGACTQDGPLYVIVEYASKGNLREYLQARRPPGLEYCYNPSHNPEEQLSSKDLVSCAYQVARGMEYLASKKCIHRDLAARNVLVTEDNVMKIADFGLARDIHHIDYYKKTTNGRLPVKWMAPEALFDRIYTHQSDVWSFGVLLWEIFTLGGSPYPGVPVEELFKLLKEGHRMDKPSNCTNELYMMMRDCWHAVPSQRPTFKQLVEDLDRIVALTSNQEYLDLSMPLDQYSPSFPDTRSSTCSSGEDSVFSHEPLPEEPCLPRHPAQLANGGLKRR
# Method: (§6) Experimental Example 1: Enzymatic Activity Test of the Compounds of the Present Invention
# as §3
# (§7) Test Instrument: The LabChip EZ Reader II drug screening platform.
# (§8) 1. Preparation for compound plate a) 96-well plates, 10 dose groups, 3-fold serial dilutions, added DMSO to each well, maximal concentration of 500 μM. b) 384-well plates, diluted with 1× kinase buffer (50 mM HEPES, pH 7.5; 0.0015% Brij-35; 2 mM DTT), each well containing 5× compound dissolved in 5 μL of 10% DMSO. The negative control well was 5 μL of 1× kinase buffer containing 10% DMSO. 2. Experimental procedure
# (§9) […] in 1× kinase buffer were reacted with 2.5× enzyme solution at room temperature for 10 min, and then the FAM-labelled polypeptide substrate and ATP were added to initiate reaction. After incubation for 30 min, 25 μL of terminal solution (100 mM HEPES, pH 7.5; 0.015% Brij-35; 0.2% Coating Reagent #3; 50 mM EDTA) was added to terminate the reaction, and the final data were read by Caliper.
# DMS114 = assay: Cellular activity test (Cell titer-Glo), DMS114; type: cell-based; settings: Homo sapiens, DMS-114, DMS114, small cell lung cancer cell with abnormal FGFR, 72 h, read-out: Inhibitory activity against cells (IC50) DMS114
# From the text: as §1, §2, §3, §4, §5
# Hep3B = assay: Cellular activity test (Cell titer-Glo), Hep3B; type: cell-based; settings: Homo sapiens, hepatocellular carcinoma cell with abnormal FGFR, 72 h, read-out: Inhibitory activity against cells (IC50) Hep3B
# From the text: as §1, §2, §3, §4, §5
# FGFR3 = FGFR3 (Homo sapiens, UniProt P22607); assay: Enzymatic activity test (LabChip EZ Reader II / Caliper), FGFR3; type: biochemical; settings: FGFR3(h), FAM-labelled polypeptide substrate and ATP, 30 min incubation; read-out: Inhibitory activity against FGFR (IC50) FGFR3
# FGFR3, sequence (P22607 23-806): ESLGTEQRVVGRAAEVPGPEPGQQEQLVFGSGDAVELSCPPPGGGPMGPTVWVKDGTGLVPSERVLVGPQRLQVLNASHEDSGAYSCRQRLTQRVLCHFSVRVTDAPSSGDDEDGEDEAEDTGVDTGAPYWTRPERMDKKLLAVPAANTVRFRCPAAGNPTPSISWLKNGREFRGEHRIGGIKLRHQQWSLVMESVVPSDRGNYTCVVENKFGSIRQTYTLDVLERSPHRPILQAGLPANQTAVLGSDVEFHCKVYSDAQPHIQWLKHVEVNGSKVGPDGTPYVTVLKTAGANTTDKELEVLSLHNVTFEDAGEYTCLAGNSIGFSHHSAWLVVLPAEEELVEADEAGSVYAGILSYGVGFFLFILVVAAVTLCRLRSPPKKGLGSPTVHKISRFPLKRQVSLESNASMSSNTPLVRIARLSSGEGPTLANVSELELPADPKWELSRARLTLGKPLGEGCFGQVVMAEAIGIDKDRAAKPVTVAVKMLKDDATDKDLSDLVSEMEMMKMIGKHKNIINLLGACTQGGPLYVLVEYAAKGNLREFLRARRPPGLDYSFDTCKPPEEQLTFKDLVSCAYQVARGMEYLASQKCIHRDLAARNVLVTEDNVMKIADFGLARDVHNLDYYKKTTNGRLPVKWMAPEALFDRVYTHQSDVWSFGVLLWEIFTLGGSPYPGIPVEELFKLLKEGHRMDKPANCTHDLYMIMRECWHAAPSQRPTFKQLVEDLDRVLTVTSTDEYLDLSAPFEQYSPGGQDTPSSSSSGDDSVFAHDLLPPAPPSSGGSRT
# Method: as §6, §3, §7, §8, §9
# FGFR4 = FGFR4 (Homo sapiens, UniProt P22455); assay: Enzymatic activity test (LabChip EZ Reader II / Caliper), FGFR4; type: biochemical; settings: FGFR4(h), FAM-labelled polypeptide substrate and ATP, 30 min incubation; read-out: Inhibitory activity against FGFR (IC50) FGFR4
# FGFR4, sequence (P22455 22-802): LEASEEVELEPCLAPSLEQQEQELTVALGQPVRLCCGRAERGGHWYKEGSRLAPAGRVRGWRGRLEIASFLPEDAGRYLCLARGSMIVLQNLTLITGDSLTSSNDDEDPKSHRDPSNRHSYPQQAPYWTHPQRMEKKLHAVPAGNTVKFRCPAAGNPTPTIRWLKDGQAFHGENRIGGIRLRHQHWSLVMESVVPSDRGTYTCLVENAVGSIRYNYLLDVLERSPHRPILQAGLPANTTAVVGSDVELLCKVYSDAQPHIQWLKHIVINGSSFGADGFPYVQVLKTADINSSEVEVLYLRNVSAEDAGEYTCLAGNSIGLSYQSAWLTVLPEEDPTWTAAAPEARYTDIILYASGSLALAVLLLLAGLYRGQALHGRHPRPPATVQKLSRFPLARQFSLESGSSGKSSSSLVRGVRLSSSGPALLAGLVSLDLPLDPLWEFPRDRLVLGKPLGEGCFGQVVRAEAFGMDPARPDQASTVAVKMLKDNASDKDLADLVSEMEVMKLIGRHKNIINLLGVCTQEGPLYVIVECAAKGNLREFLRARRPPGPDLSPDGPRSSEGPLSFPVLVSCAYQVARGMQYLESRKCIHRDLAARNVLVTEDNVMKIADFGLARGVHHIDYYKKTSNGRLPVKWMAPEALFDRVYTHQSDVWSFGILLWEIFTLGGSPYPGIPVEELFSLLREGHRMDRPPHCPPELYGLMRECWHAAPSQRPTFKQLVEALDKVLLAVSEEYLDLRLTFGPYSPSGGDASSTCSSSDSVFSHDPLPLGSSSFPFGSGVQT
# Method: as §6, §3, §7, §8, §9
# FGFR2 = FGFR2 (Homo sapiens, UniProt P21802); assay: Enzymatic activity test (LabChip EZ Reader II / Caliper), FGFR2; type: biochemical; settings: FGFR2(h), FAM-labelled polypeptide substrate and ATP, 30 min incubation; read-out: Inhibitory activity against FGFR (IC50) FGFR2
# FGFR2, sequence (P21802 22-821): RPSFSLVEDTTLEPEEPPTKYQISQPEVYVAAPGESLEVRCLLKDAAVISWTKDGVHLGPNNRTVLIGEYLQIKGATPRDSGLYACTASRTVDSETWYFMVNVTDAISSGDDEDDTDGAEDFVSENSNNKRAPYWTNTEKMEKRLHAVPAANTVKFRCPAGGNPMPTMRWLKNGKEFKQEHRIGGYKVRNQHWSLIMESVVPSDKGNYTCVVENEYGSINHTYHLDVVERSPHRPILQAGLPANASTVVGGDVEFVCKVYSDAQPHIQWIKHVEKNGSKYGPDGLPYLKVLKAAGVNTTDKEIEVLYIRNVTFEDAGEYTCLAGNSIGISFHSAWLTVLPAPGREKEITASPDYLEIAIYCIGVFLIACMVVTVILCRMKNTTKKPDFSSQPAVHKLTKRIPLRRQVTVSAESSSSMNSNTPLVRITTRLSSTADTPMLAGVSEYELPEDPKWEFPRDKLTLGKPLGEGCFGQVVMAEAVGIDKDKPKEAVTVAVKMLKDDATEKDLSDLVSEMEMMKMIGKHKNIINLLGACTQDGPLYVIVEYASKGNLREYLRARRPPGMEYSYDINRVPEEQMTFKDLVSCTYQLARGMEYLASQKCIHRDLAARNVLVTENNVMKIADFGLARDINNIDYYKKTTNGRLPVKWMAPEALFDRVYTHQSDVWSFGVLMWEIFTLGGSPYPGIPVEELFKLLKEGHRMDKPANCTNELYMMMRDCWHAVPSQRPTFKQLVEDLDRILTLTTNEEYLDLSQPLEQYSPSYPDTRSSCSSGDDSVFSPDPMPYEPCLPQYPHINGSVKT
# Method: as §6, §3, §7, §8, §9
# SNU-16 = assay: Cellular activity test (Cell titer-Glo), SNU-16; type: cell-based; settings: Homo sapiens, SNU-16, gastric cancer cell with abnormal FGFR, 72 h, read-out: Inhibitory activity against cells (IC50) SNU-16
# From the text: as §1, §2, §3, §4, §5
# AN3CA = assay: Cellular activity test (Cell titer-Glo), AN3CA; type: cell-based; settings: Homo sapiens, AN3-CA, endometrial cancer cell with abnormal FGFR, 72 h, read-out: Inhibitory activity against cells (IC50) AN3CA
# From the text: as §1, §2, §3, §4, §5
SMILES,IC50 (RT112/84),IC50 (FGFR1),IC50 (DMS114),IC50 (Hep3B),IC50 (FGFR3),IC50 (FGFR4),IC50 (FGFR2),IC50 (SNU-16),IC50 (AN3CA)
"C=CC(=O)N1CC[C@H](Nc2ncc3cc(-c4c(Cl)c(OC)cc(OC)c4Cl)ccc3n2)C1 [Compound 5, (S)-1-(3-((6-(2,6-dichloro-3,5-dimethoxyphenyl)quinazolin-2-yl)amino)pyrrolidin-1-yl)propyl-2-en-1-one]",56 nM,5.4 nM,58 nM,153 nM,18 nM,175 nM,5.5 nM,,
"C=CC(=O)N1C[C@@H](C)[C@H](Nc2ncc3cc(-c4c(Cl)c(OC)cc(OC)c4Cl)ccc3n2)C1 [Compound 20, 1-((3S,4R)-3-((6-(2,6-dichloro-3,5-dimethoxyphenyl)quinazolin-2-yl)amino)-4-methylpyrrolidin-1-yl)propyl-2-en-1-one]",77 nM,15 nM,113 nM,50.2 nM,34 nM,68 nM,15 nM,,
"C=CC(=O)N1C[C@@H](Nc2ncc3cc(-c4c(Cl)c(OC)cc(OC)c4Cl)ccc3n2)C[C@H]1CO [Compound 22, 1-((2S,4S)-4-((6-(2,6-dichloro-3,5-dimethoxyphenyl)quinazolin-2-yl)amino)-2-(hydroxymethyl)pyrrolidin-1-yl)prop-2-en-1-one]",40 nM,4.6 nM,25 nM,32.2 nM,19 nM,101 nM,4.4 nM,11 nM,59 nM
C=CC(=O)N1C[C@@H](Nc2ncc3cc(-c4c(Cl)c(OC)cc(OC)c4Cl)ccc3n2)C[C@@H]1CO [Compound 23],50 nM,,31 nM,26 nM,,,,22 nM,86 nM
"C=CC(=O)N1C[C@@H](Nc2ncc3cc(-c4c(Cl)c(OC)cc(OC)c4Cl)ccc3n2)C[C@H]1CF [Compound 24, 1-((2S,4S)-4-((6-(2,6-dichloro-3,5-dimethoxyphenyl)quinazolin-2-yl)amino)-2-(fluoromethyl)pyrrolidin-1-yl)prop-2-en-1-one]",153 nM,,,46 nM,,,,48 nM,
"C=CC(=O)N1CC2(CC(Nc3ncc4cc(-c5c(Cl)c(OC)cc(OC)c5Cl)ccc4n3)C2)C1 [Compound 65, 1-(6-((6-(2,6-dichloro-3,5-dimethoxyphenyl)quinazolin-2-yl)amino)-2-azaspiro[3.3]heptan-2-yl)prop-2-en-1-one]",161 nM,,,66 nM,,,,92 nM,
